Laboratory results taken from ChEMBL document CHEMBL1201862, “PubChem BioAssay data set” (2004).
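Cells were grown in 96-well plates and exposed to each compound for 48 hours at five concentrations; endpoints were interpolated linearly between bracketing concentrations, or set to the highest concentration if not reached. GI50 marks 50% less growth.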 Calls of active or inactive are those of the source. Rule as the data show it: active = GI50 up to about 1.1 µM and inactive = higher.

Assays:
Assay in all cases: inhibition of tumour cell growth, NCI panel, 48 h
SNB-75 = system: SNB-75
SF-268 = system: SF-268
CAKI-1 = system: CAKI-1
CCRF-CEM = system: CCRF-CEM
HCC 2998 = system: HCC 2998
HT-29 = system: HT-29
HL-60 = system: HL-60
IGROV-1 = system: IGROV-1
BT-549 = system: BT-549
NCI-H23 = system: NCI-H23
SK-OV-3 = system: SK-OV-3
OVCAR-4 = system: OVCAR-4
OVCAR-8 = system: OVCAR-8
PC-3 = system: PC-3
KM12 = system: KM12
SN12C = system: SN12C
SW-620 = system: SW-620
OVCAR-5 = system: OVCAR-5
MOLT-4 = system: MOLT-4
HOP-62 = system: HOP-62
RXF 393 = system: RXF 393
K562 = system: K562
HOP-92 = system: HOP-92
NCI/ADR-RES = system: NCI/ADR-RES
SF-539 = system: SF-539
MDA-MB-435 = system: MDA-MB-435
SK-MEL-5 = system: SK-MEL-5
NCI-H226 = system: NCI-H226
SR = system: SR
A549 = system: A549
786-0 = system: 786-0
HCT-15 = system: HCT-15
Hs-578T = system: Hs-578T
UACC-62 = system: UACC-62
SK-MEL-2 = system: SK-MEL-2
NCI-H460 = system: NCI-H460
MDA-N = system: MDA-N
SK-MEL-28 = system: SK-MEL-28
UACC-257 = system: UACC-257
ACHN = system: ACHN
OVCAR-3 = system: OVCAR-3
T47D = system: T47D
MDA-MB-231 = system: MDA-MB-231
SNB-19 = system: SNB-19
LOX IMVI = system: LOX IMVI
COLO 205 = system: COLO 205
M14 = system: M14
HCT-116 = system: HCT-116
U-251 = system: U-251
RPMI-8226 = system: RPMI-8226
DU-145 = system: DU-145
A498 = system: A498
Malme-3M = system: Malme-3M
NCI-H522 = system: NCI-H522
TK-10 = system: TK-10
SF-295 = system: SF-295
MCF7 = system: MCF7
EKVX = system: EKVX
UO-31 = system: UO-31

Measured: GI50

CCN(CC)c1ccc2cc(C(N)=O)c(=N)oc2c1
35 µM: HCT-15
inactive: SNB-75 26.5 µM | SF-268 42.3 µM | CAKI-1 35.4 µM | CCRF-CEM 31.2 µM | HCC 2998 5.36 µM | HT-29 51.5 µM | HL-60 36.5 µM | IGROV-1 21.1 µM | BT-549 52.5 µM | NCI-H23 42.8 µM | SK-OV-3 36.6 µM | OVCAR-4 23.6 µM | OVCAR-8 50 µM | PC-3 26.3 µM | KM12 31 µM | SN12C 31.3 µM | SW-620 47.4 µM | OVCAR-5 51.5 µM | MOLT-4 69.2 µM | HOP-62 38.6 µM | RXF 393 55 µM | K562 > 100 µM | HOP-92 24 µM | NCI/ADR-RES 53.1 µM | SF-539 4.15 µM | MDA-MB-435 30.9 µM | SK-MEL-5 32.5 µM | NCI-H226 19.7 µM | SR 14.6 µM | A549 37.4 µM | 786-0 30.1 µM | Hs-578T 16.3 µM | UACC-62 30.8 µM | SK-MEL-2 21.3 µM | NCI-H460 27 µM | MDA-N 38.2 µM | SK-MEL-28 31.3 µM | UACC-257 > 100 µM | ACHN 32.7 µM | OVCAR-3 31.6 µM | T47D 23.7 µM | MDA-MB-231 32.1 µM | SNB-19 42.1 µM | LOX IMVI 29.5 µM | COLO 205 35.2 µM | M14 34.4 µM | HCT-116 35.1 µM | U-251 98.6 µM | RPMI-8226 96.6 µM | DU-145 40.9 µM | A498 38.2 µM

COc1ccccc1OCC(=N/NC(=O)c1ccncc1)/N=C/c1ccncc1
> 100 µM: HCT-15
inactive: SF-268 > 100 µM | CAKI-1 > 100 µM | CCRF-CEM > 100 µM | HCC 2998 > 100 µM | HT-29 > 100 µM | HL-60 > 100 µM | Malme-3M > 100 µM | IGROV-1 > 100 µM | BT-549 > 100 µM | NCI-H23 > 100 µM | SK-OV-3 > 100 µM | OVCAR-4 > 100 µM | OVCAR-8 > 100 µM | PC-3 > 100 µM | KM12 > 100 µM | SN12C > 100 µM | SW-620 > 100 µM | OVCAR-5 > 100 µM | MOLT-4 > 100 µM | HOP-62 > 100 µM | RXF 393 > 100 µM | K562 > 100 µM | NCI-H522 > 100 µM | HOP-92 44 µM | NCI/ADR-RES > 100 µM | SF-539 > 100 µM | MDA-MB-435 > 100 µM | TK-10 > 100 µM | NCI-H226 > 100 µM | A549 > 100 µM | 786-0 > 100 µM | Hs-578T > 100 µM | UACC-62 > 100 µM | SK-MEL-2 > 100 µM | NCI-H460 > 100 µM | MDA-N > 100 µM | SK-MEL-28 > 100 µM | UACC-257 > 100 µM | ACHN > 100 µM | OVCAR-3 > 100 µM | SF-295 > 100 µM | T47D > 100 µM | MDA-MB-231 > 100 µM | SNB-19 > 100 µM | LOX IMVI > 100 µM | COLO 205 > 100 µM | M14 > 100 µM | HCT-116 > 100 µM | U-251 > 100 µM | MCF7 > 100 µM | RPMI-8226 > 100 µM | EKVX > 100 µM | DU-145 > 100 µM | A498 > 100 µM

O=C1CC2(CCN(Cc3ccccc3)CC2)C(=O)N1N1CCCCC1
> 100 µM: HCT-15
inactive: SNB-75 > 100 µM | SF-268 > 100 µM | CAKI-1 > 100 µM | HT-29 > 100 µM | HL-60 > 100 µM | Malme-3M > 100 µM | IGROV-1 > 100 µM | BT-549 > 100 µM | NCI-H23 > 100 µM | SK-OV-3 > 100 µM | OVCAR-8 > 100 µM | PC-3 > 100 µM | KM12 > 100 µM | SN12C > 100 µM | SW-620 > 100 µM | OVCAR-5 > 100 µM | MOLT-4 > 100 µM | HOP-62 > 100 µM | RXF 393 > 100 µM | K562 > 100 µM | NCI-H522 > 100 µM | NCI/ADR-RES > 100 µM | SF-539 > 100 µM | MDA-MB-435 > 100 µM | SK-MEL-5 > 100 µM | TK-10 > 100 µM | NCI-H226 > 100 µM | A549 > 100 µM | 786-0 > 100 µM | Hs-578T > 100 µM | UACC-62 > 100 µM | SK-MEL-2 > 100 µM | NCI-H460 > 100 µM | MDA-N > 100 µM | SK-MEL-28 > 100 µM | UACC-257 > 100 µM | ACHN > 100 µM | OVCAR-3 > 100 µM | SF-295 > 100 µM | T47D > 100 µM | MDA-MB-231 > 100 µM | SNB-19 > 100 µM | LOX IMVI > 100 µM | COLO 205 > 100 µM | UO-31 > 100 µM | M14 > 100 µM | HCT-116 > 100 µM | U-251 > 100 µM | MCF7 > 100 µM | RPMI-8226 > 100 µM | DU-145 > 100 µM | A498 > 100 µM

C=CC(CBr)CCC(Br)C(C)(C)Br (centres undefined)
> 10 µM: HCT-15
inactive: SNB-75 > 10 µM | SF-268 > 10 µM | CAKI-1 > 10 µM | CCRF-CEM > 10 µM | HCC 2998 > 10 µM | HT-29 > 10 µM | Malme-3M > 10 µM | IGROV-1 > 10 µM | BT-549 > 10 µM | NCI-H23 > 10 µM | SK-OV-3 > 10 µM | OVCAR-4 > 10 µM | OVCAR-8 > 10 µM | PC-3 > 10 µM | KM12 > 10 µM | SN12C > 10 µM | SW-620 > 10 µM | OVCAR-5 > 10 µM | MOLT-4 > 10 µM | HOP-62 > 10 µM | RXF 393 > 10 µM | K562 > 10 µM | NCI-H522 > 10 µM | HOP-92 > 10 µM | NCI/ADR-RES > 10 µM | SF-539 > 10 µM | MDA-MB-435 > 10 µM | SK-MEL-5 > 10 µM | TK-10 > 10 µM | NCI-H226 > 10 µM | A549 > 10 µM | 786-0 > 10 µM | Hs-578T > 10 µM | SK-MEL-2 > 10 µM | NCI-H460 > 10 µM | MDA-N > 10 µM | SK-MEL-28 > 10 µM | UACC-257 > 10 µM | ACHN > 10 µM | OVCAR-3 > 10 µM | SF-295 > 10 µM | T47D > 10 µM | MDA-MB-231 > 10 µM | SNB-19 > 10 µM | COLO 205 > 10 µM | UO-31 > 10 µM | M14 > 10 µM | HCT-116 > 10 µM | U-251 > 10 µM | MCF7 > 10 µM | RPMI-8226 > 10 µM | EKVX > 10 µM | DU-145 > 10 µM | A498 > 10 µM

O=S(=O)(O)c1ccc2c(/N=N\c3ccc(F)cc3)c(O)c(S(=O)(=O)O)cc2c1
inactive: SNB-75 > 100 µM | SF-268 > 100 µM | CAKI-1 > 100 µM | CCRF-CEM > 100 µM | HT-29 > 100 µM | Malme-3M > 100 µM | IGROV-1 > 100 µM | BT-549 > 100 µM | NCI-H23 > 100 µM | SK-OV-3 > 100 µM | OVCAR-4 > 100 µM | OVCAR-8 > 100 µM | PC-3 > 100 µM | KM12 > 100 µM | SN12C > 100 µM | SW-620 > 100 µM | OVCAR-5 > 100 µM | MOLT-4 > 100 µM | HOP-62 > 100 µM | RXF 393 > 100 µM | K562 > 100 µM | NCI-H522 > 100 µM | HOP-92 > 100 µM | NCI/ADR-RES > 100 µM | MDA-MB-435 > 100 µM | SK-MEL-5 > 100 µM | TK-10 > 100 µM | SR > 100 µM | A549 > 100 µM | 786-0 > 100 µM | Hs-578T > 100 µM | UACC-62 > 100 µM | SK-MEL-2 > 100 µM | MDA-N > 100 µM | SK-MEL-28 > 100 µM | UACC-257 > 100 µM | ACHN > 100 µM | OVCAR-3 > 100 µM | SF-295 > 100 µM | T47D > 100 µM | MDA-MB-231 > 100 µM | SNB-19 > 100 µM | LOX IMVI > 100 µM | COLO 205 > 100 µM | UO-31 > 100 µM | M14 > 100 µM | HCT-116 > 100 µM | U-251 > 100 µM | RPMI-8226 > 100 µM | EKVX > 100 µM | DU-145 > 100 µM | A498 > 100 µM
> 100 µM: HCT-15
active: HL-60 < 0.01 µM
